Earlier results in patent US9861647B2 (Prelief Inc., priority 2007, dated 2018).
Like-named read-outs stand apart in the source and are kept apart here.

System: ragweed sensitized Beagle dogs
Conditions: Rudolph et al., 2003, cited from earlier work

Compound	RW-induced nasal congestion (chlorpheniramine 10 mg/kg)	RW-induced nasal congestion (pseudoephedrine 3 mg/kg)
CN(C)CCC(c1ccc(Cl)cc1)c1ccccn1 (centres unmarked) [chlorpheniramine]	can prevent the development of RW-induced nasal congestion	
CN[C@@H](C)[C@@H](O)c1ccccc1 [pseudoephedrine]		can prevent the development of RW-induced nasal congestion
